Measurements as given in patent publication US20260007639A1, “COMPOUNDS FOR THE TREATMENT OF NEUROMUSCULAR DISORDERS” (NMD PHARMA A/S, priority 2017, published 2026).

Columns and labels:
CIC-1 channels = molecular target: T1, CIC-1 channels (Rattus norvegicus, UniProt P35524); assay: Electrophysiological measurement of compound inhibition of CIC-1 (Gm) in rat soleus muscle fibres: EC50 (Table 7)
T1 sequence (P35524 1-994): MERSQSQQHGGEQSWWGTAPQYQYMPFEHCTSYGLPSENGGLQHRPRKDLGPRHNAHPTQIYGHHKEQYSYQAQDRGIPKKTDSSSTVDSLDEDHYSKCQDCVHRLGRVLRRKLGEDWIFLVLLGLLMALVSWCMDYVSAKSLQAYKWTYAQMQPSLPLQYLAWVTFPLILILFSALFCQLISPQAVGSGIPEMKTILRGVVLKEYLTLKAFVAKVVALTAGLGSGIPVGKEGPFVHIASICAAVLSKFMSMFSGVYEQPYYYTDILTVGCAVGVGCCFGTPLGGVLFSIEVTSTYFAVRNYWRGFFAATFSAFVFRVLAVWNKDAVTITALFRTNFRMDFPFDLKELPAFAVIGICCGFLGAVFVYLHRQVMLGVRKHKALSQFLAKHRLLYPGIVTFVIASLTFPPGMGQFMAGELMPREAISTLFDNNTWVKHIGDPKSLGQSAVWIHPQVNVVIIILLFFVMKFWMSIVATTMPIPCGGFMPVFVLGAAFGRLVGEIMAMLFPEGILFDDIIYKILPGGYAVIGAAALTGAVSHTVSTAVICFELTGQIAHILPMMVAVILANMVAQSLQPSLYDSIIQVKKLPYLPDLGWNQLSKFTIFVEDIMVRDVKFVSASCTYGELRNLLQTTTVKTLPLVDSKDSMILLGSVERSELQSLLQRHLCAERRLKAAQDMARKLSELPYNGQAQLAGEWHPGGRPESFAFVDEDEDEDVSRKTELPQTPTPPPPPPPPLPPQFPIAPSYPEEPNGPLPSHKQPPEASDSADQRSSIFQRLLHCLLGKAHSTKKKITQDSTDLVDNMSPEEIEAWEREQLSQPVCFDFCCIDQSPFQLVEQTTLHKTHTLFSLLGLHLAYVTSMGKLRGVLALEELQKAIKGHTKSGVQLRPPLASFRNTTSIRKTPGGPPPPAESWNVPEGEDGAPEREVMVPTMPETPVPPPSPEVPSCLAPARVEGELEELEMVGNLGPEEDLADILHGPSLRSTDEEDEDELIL

human CIC-1 channels = molecular target: T2, human CIC-1 channels (Homo sapiens, UniProt P35523); assay: Automated patch-clamp on human CIC-1 expressed in CHO cells: shift of half activation voltage ΔV1/2; assay type: cell-based; details: compound in intracellular solution vs control cell patches; CHO cells expressing human CIC-1
T2 construct: host or cells: CHO (Chinese hamster ovary) cells constitutively expressing human ClC-1
Description: FIGS. 13A-13B: FIG. 13A illustrates the voltage protocol used to evoke currents in whole cell patches of CHO cells expressing human CIC-1 channels.
Experiments were performed using an automated patch clamp system that allowed high throughput testing of whole cell patches together with both intracellular and extracellular addition of compound.
Automated whole cell patch clamp experiments were performed with the Qpatch 16 system (Sophion Bioscience, Ballerup, Denmark) at room temperature. Data acquisition and analysis were performed in the Qassay software (ver. 5.6, Odense).
To evoke CIC-1 currents in whole cell patches, the membrane potential was initially stepped from a holding potential of −30 mV to +60 mV for 100 ms and then to various test voltages (sweeps) ranging from +120 mV to −140 mV in steps of 20 mV for 300 ms. To obtain tail currents, the membrane potential was stepped to −100 mV after each test voltage for 300 ms and then relaxed to −30 mV for 2 sec between sweeps (FIG. 3).
I/V relationships for whole cell instant and steady state current amplitudes were obtained by plotting average current densities at the beginning and at the end of the 300 ms step against the membrane potential (FIG. 4).
In order to determine the relative overall open probability (Po), the instantaneous tail currents were normalized to the maximal tail current obtained following the most positive voltage step and plotted against the test voltage. Plots of normalized tail currents from each whole cell patch were then fitted to a Boltzmann function allowing determination of half activation voltages (V1/2, FIG. 5).
For automated patch clamp experiments extracellular solutions contained: 2 mM CaCl2), 1 mM MgCl2, 10 mM HEPES, 4 mM KCl, 145 mM NaCl, 10 mM Glucose, pH adjusted to 7.4 with NaOH (2 M). Osmolality adjusted to ˜320 using sucrose.
Intracellular solutions contained: 80 mM CsF, 60 mM CsCl, 5/1 mM KOH/EGTA, 10 mM HEPES, 10 mM NaCl, pH adjusted to 7.2 with NaOH (2 M). Osmolality adjusted to ˜320 mOsm using sucrose.
Cells used in patch clamp experiments were Chinese hamster ovary cells (CHO) constitutively expressing human CIC-1 channels. The amino acid sequence encoded by the cDNA used to create this cell line was identical to the translated sequence for GenBank accession number NM_000083.2. Cells were produced by Charles River (Catalogue CT6175, Cleveland OH, USA) in a cryopreserved format. Experiments were performed on the cells directly after thawing (3×10^6 cells used in each experiment).
To evaluate the compound effect on CIC-1, when applied directly to the intracellular side of the cell membrane, the half activation voltage, V1/2, was determined from whole cell patches with compound added to the intracellular solution and then compared to V1/2 determined from control cell patches with only vehicle added to the intracellular solution. Additionally, the effect of extracellular added compound was evaluated by determine V1/2 and steady state current amplitudes before and after exchanging the extracellular solution to contain compound.
The difference in half activation voltage of CIC-1 channels, ΔV1/2, was determined as the difference between the cell patches treated intracellularly with compound and control cells patches and is reported in Table 4 below. A positive shift in ΔV 1/2 is reflecting CIC-1 channel inhibition by the tested compound. P-values of <0.05 is considered significant.

T2 sequence (P35523 whole entry): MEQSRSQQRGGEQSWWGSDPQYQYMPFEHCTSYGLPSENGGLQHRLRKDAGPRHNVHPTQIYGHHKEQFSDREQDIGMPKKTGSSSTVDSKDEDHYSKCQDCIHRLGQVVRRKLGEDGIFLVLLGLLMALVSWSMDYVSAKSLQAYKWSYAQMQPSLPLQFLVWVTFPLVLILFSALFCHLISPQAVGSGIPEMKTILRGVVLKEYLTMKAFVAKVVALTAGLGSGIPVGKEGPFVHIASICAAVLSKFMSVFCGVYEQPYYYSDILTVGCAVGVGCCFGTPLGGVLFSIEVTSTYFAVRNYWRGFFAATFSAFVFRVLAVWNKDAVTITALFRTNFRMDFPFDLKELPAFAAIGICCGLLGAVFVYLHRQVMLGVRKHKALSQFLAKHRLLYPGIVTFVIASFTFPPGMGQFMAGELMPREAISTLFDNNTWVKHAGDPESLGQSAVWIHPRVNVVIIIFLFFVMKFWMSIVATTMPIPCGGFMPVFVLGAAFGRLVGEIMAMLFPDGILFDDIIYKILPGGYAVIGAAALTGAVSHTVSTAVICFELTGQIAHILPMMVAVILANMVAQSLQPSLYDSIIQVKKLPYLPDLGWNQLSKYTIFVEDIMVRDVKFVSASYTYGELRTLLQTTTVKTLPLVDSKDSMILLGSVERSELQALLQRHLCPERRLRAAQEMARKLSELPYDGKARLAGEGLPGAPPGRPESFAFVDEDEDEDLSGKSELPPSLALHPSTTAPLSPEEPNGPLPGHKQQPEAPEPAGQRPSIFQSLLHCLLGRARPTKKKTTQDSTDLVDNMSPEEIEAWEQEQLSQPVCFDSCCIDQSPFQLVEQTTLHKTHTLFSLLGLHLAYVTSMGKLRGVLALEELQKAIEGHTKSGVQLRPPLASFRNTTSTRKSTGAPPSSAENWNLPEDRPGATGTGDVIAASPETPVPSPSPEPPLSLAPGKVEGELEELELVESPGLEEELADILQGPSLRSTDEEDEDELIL

| SMILES | EC50 (CIC-1 channels) [µM] | Δ1/2 (mV) (human CIC-1 channels) |
| --- | --- | --- |
| O=C(O)COc1ccc(Br)cc1-c1ccon1 [Compound A-64, 2-[4-bromo-2-(1,2-oxazol-3-yl)phenoxy]acetic acid] | 7.4 | 11.3 |
| O=C(O)[C@H](CF)Oc1ccc(Br)cc1-c1ccon1 [Compound A-31, (2R)-2-[4-bromo-2-(1,2-oxazol-3-yl)phenoxy]-3-fluoropropanoic acid] | 3.3 | 13.8 |
| C[C@H](Oc1cc(F)c(Br)cc1-c1ccon1)C(=O)O [Compound A-44, (2S)-2-[4-bromo-5-fluoro-2-(1,2-oxazol-3-yl)phenoxy]propanoic acid] | 2.9 | 17.7 |
| C[C@H](Oc1ccc(Cl)cc1-c1ccno1)C(=O)O [Compound A-26, (2S)-2-[4-chloro-2-(1,2-oxazol-5-yl)phenoxy]propanoic acid] | 3.6 | 21 |
| C[C@H](Oc1ccc(Br)cc1-c1csnn1)C(=O)O [Compound A-59, (2S)-2-[4-bromo-2-(1,2,3-thiadiazol-4-yl)phenoxy]propanoic acid] | 5.6 | 7.9 |
